Experiments:
[1] = tested on: quadriceps muscle of mdx mice; experiment: Tissue respirometry on quadriceps muscle; assay type: in vivo, mouse; settings: weekly prednisone, opposite to daily dosing
Description: Tissue respirometry. Whole-tissue analysis of basal rates of oxygen consumption (OCR) and extracellular acidification (ECAR) was conducted adapting reported conditions for intact muscle tissue analysis (Shintaku and Guttridge, 2016) to the XF96 Extracellular Flux Analyzer platform (Agilent, Santa Clara, Calif.). Immediately after mouse sacrification, target muscle (quadriceps) tissues were quickly collected, rinsed in clean PBS buffer and dissected into approximately 2×2×2 mm pieces. At least three biopsies were sampled for each tissue. […] Respirometry analysis was then performed on equilibrated tissue biopsies using the following protocol for each basal or post-injection read: 3 min mix, 5 min delay, 2 min measure. Basal rate reads were collected for 6 consecutive times, then drugs were injected and control reads gathered for additional 3 consecutive times. […] Compound concentrations were determined on literature and/or preliminary test assays on wildtype muscle biopsies, and the concentration of the compound when loaded in the cartridge port was 10× in appropriate solvent (typically DMSO or ddH2O). OCR/ECAR reads were averaged for same tissue replicates and subtracted of background noise values (empty wells with only medium and appropriate compound). […]

mdx mice [2] = experiment: Multi-modal imaging (FDG-PET, microCT, MR) of live mdx mice; assay type: in vivo, mouse; settings: weekly prednisone
From the text: Multi-modal Imaging (FDG-PET, microCT, MR). Mice were anesthetized in an induction chamber with 3% isoflurane in oxygen, weighed, and then transferred to a dedicated imaging bed with isoflurane delivered via nosecone at 1-2%. Mice were placed in the prone position on a plastic bed and immobilized to minimize changes in position between scans. Respiratory signals were monitored using a digital monitoring system developed by Mediso (Mediso-USA, Boston, Mass.). Mice were imaged with a preclinical microPET/CT imaging system (nanoScan PET/CT, Mediso-USA, Boston, Mass.). CT data was acquired with a 2.2× magnification, <60 μm focal spot, 2×2 binning, with 480 projection views over a full circle, using 50 kVp/[…], with a 300 ms exposure time. The projection data was reconstructed with a voxel size of 250 μm and using filtered (Butterworth filter) backprojection software from Mediso. A bone mineral density standard (GRM GmbH, Moehrendorf, Germany) with hydroxyapatite (HA) from 0 to 1200 mg HA/cm^3 was used to convert the CT images from Hounsfield units to bone mineral density. The HA standard was imaged with the same parameters. For PET imaging, a target of 10 MBq of ^18F-fluordeoxyglucose (FDG) was injected intravenously after mice had been fasted for four hours. PET acquisition parameters were as follows: 1:1 coincidence detection and 30-minute acquisition time. MLEM reconstruction was used with CT for attenuation correction and scattering. Pixel size was set to 0.3×0.3 mm. After completion of PET/CT, each mouse was transferred to the MRI scanner and a reference standard consisting of one tube of canola oil and one tube of water was positioned above its back. MRI was performed on a 9.4T Bruker Biospec MRI system with a 30 cm bore, a 12 cm gradient insert, and an AutoPac laser positioned motorized bed (Bruker Biospin Inc, Billerica, Mass.). Respiratory signals and temperature were monitored using an MR-compatible physiologic monitoring system (SA Instruments, Stonybrook, N.Y.); a warm water circulating system was used to maintain body temperature. A 72 mm quadrature volume coil (Bruker Biospin, Inc, Billerica, Mass.) was used to image each mouse's whole body in two overlapping fields of view. First, the mouse was positioned with the thorax at the magnet's isocenter and imaged using a T1-weighted accelerated spin echo sequence (Rapid Acquisition with Relaxation Enhancement, RARE) with five pairs of interleaved axial slice stacks covering brain to mid-abdomen. TR was nominally set at 1000 ms; with respiratory gating the functional TR was approximately 1500 ms (range 1300-2000 ms). The following additional parameters were used: TE=6.25 ms, RARE factor 4, MTX=256×256, FOV 45×45 mm, 15 slices of 1 mm thick, 4 mm gap between slices, and 2 signal averages. […]

mdx mice [3] = experiment: Dosing of metabolic and endocrine biomarkers in blood, serum and tissues, mdx mice, long-term (40 weeks) weekly prednisone; assay type: in vivo

C[C@]12C=CC(=O)C=C1CC[C@@H]1[C@@H]2C(=O)C[C@@]2(C)[C@H]1CC[C@]2(O)C(=O)CO [prednisone, Prednisone]
glucose-fueled lactate production [1]: improved
valine-fueled oxygen consumption [1]: improved
18FDG uptake in fat (mdx mice [2]): decreasing
fat mass accumulation (magnetic resonance) (mdx mice [2]): did not increase
muscle uptake of 18FDG (mdx mice [2]): increase
osteoporosis (bone mineral density, tomography) (mdx mice [2]): did not induce osteoporosis
ATP, NAD+, and glycogen in muscle and blood lactate (mdx mice [3]): increase

From patent publication US20220062299A1, “USE OF GLUCOCORTICOID STEROIDS IN PREVENTING AND TREATING CONDITIONS OF MUSCLE WASTING, AGING AND METABOLIC DISORDER” (NORTHWESTERN UNIVERSITY, priority 2018, published 2022)
